In patent US20180214395A1 (priority 2017, published 2018):

Experiment: SAD study: cardiac safety (ECG, telemetry, QTcF prolongation)

SMILES: CCC(=O)C(C[C@H](C)N(C)C)(c1ccccc1)c1ccccc1 [d-methadone]
- Overall ECG result Abnormal, NCS (5 mg (N = 6), 0.5 h): 0 n (%)
- Overall ECG result Normal (5 mg (N = 6), 0.5 h): 6 n (%)
- Overall ECG result Abnormal, NCS (5 mg (N = 6), 1 h): 1 n (%)
- Overall ECG result Normal (5 mg (N = 6), 1 h): 5 n (%)
- Overall ECG result Abnormal, NCS (5 mg (N = 6), 2 h): 3 n (%)
- Overall ECG result Normal (5 mg (N = 6), 2 h): 3 n (%)
- Overall ECG result Abnormal, NCS (5 mg (N = 6), 3 h): 2 n (%)
- Overall ECG result Normal (5 mg (N = 6), 3 h): 4 n (%)
- Overall ECG result Abnormal, NCS (5 mg (N = 6), 5 h): 2 n (%)
- Overall ECG result Normal (5 mg (N = 6), 5 h): 4 n (%)
- Overall ECG result Abnormal, NCS (5 mg (N = 6), 8 h): 0 n (%)
- Overall ECG result Normal (5 mg (N = 6), 8 h): 6 n (%)
- Overall ECG result Abnormal, NCS (5 mg (N = 6), 12 h): 0 n (%)
- Overall ECG result Normal (5 mg (N = 6), 12 h): 6 n (%)
- Overall ECG result Abnormal, NCS (5 mg (N = 6), 24 h): 1 n (%)
- Overall ECG result Normal (5 mg (N = 6), 24 h): 5 n (%)
- Overall ECG result Abnormal, NCS (5 mg (N = 6), 48 h): 0 n (%)
- Overall ECG result Normal (5 mg (N = 6), 48 h): 6 n (%)
- Overall ECG result Abnormal, NCS (5 mg (N = 6), 72 h): 0 n (%)
- Overall ECG result Normal (5 mg (N = 6), 72 h): 6 n (%)
- Overall ECG result Abnormal, NCS (5 mg (N = 6), Visit 3): 1 n (%)
- Overall ECG result Normal (5 mg (N = 6), Visit 3): 5 n (%)
- QTcF Average (5 mg, subject 9002, 5 h): 445 ms
- QTcF Reading 1 (5 mg, subject 9002, 5 h): 451 ms
- QTcF Reading 2 (5 mg, subject 9002, 5 h): 446 ms
- QTcF Reading 3 (5 mg, subject 9002, 5 h): 439 ms
- QTcF Average (5 mg, subject 9003, 1 h): 420 ms
- QTcF Reading 1 (5 mg, subject 9003, 1 h): 437 ms
- QTcF Reading 2 (5 mg, subject 9003, 1 h): 411 ms
- QTcF Reading 3 (5 mg, subject 9003, 1 h): 412 ms
- QTcF Average (5 mg, subject 9003, 2 h): 432 ms
- QTcF Reading 1 (5 mg, subject 9003, 2 h): 440 ms
- QTcF Reading 2 (5 mg, subject 9003, 2 h): 434 ms
- QTcF Reading 3 (5 mg, subject 9003, 2 h): 421 ms
- QTcF Average (5 mg, subject 9003, 3 h): 429 ms
- QTcF Reading 1 (5 mg, subject 9003, 3 h): 424 ms
- QTcF Reading 2 (5 mg, subject 9003, 3 h): 427 ms
- QTcF Reading 3 (5 mg, subject 9003, 3 h): 435 ms
- QTcF Average (5 mg, subject 9003, 5 h): 432 ms
- QTcF Reading 1 (5 mg, subject 9003, 5 h): 434 ms
- QTcF Reading 2 (5 mg, subject 9003, 5 h): 435 ms
- QTcF Reading 3 (5 mg, subject 9003, 5 h): 426 ms
- QTcF Average (5 mg, subject 9009, 2 h): 420 ms
- QTcF Reading 1 (5 mg, subject 9009, 2 h): 413 ms
- QTcF Reading 2 (5 mg, subject 9009, 2 h): 431 ms
- QTcF Reading 3 (5 mg, subject 9009, 2 h): 417 ms
- Overall ECG result Abnormal, NCS (20 mg (N = 6), 0.5 h): 1 (16.7) n (%)
- Overall ECG result Normal (20 mg (N = 6), 0.5 h): 5 (83.3) n (%)
- Overall ECG result Abnormal, NCS (20 mg (N = 6), 1 h): 1 (16.7) n (%)
- Overall ECG result Normal (20 mg (N = 6), 1 h): 5 (83.3) n (%)
- Overall ECG result Abnormal, NCS (20 mg (N = 6), 2 h): 2 (33.3) n (%)
- Overall ECG result Normal (20 mg (N = 6), 2 h): 4 (66.7) n (%)
- Overall ECG result Abnormal, NCS (20 mg (N = 6), 3 h): 2 (33.3) n (%)
- Overall ECG result Normal (20 mg (N = 6), 3 h): 4 (66.7) n (%)
- Overall ECG result Abnormal, NCS (20 mg (N = 6), 5 h): 1 (16.7) n (%)
- Overall ECG result Normal (20 mg (N = 6), 5 h): 5 (83.3) n (%)
- Overall ECG result Abnormal, NCS (20 mg (N = 6), 8 h): 1 (16.7) n (%)
- Overall ECG result Normal (20 mg (N = 6), 8 h): 5 (83.3) n (%)
- Overall ECG result Abnormal, NCS (20 mg (N = 6), 12 h): 1 (16.7) n (%)
- Overall ECG result Normal (20 mg (N = 6), 12 h): 5 (83.3) n (%)
- Overall ECG result Abnormal, NCS (20 mg (N = 6), 24 h): 1 (16.7) n (%)
- Overall ECG result Normal (20 mg (N = 6), 24 h): 5 (83.3) n (%)
- Overall ECG result Abnormal, NCS (20 mg (N = 6), 48 h): 2 (33.3) n (%)
- Overall ECG result Normal (20 mg (N = 6), 48 h): 4 (66.7) n (%)
- Overall ECG result Abnormal, NCS (20 mg (N = 6), 72 h): 1 (16.7) n (%)
- Overall ECG result Normal (20 mg (N = 6), 72 h): 5 (83.3) n (%)
- Overall ECG result Abnormal, NCS (20 mg (N = 6), Visit 3): 0 n (%)
- Overall ECG result Normal (20 mg (N = 6), Visit 3): 6 (100) n (%)
- Overall ECG result Abnormal, NCS (60 mg (N = 6), 0.5 h): 1 (16.7) n (%)
- Overall ECG result Normal (60 mg (N = 6), 0.5 h): 5 (83.3) n (%)
- Overall ECG result Abnormal, NCS (60 mg (N = 6), 1 h): 2 (33.3) n (%)
- Overall ECG result Normal (60 mg (N = 6), 1 h): 4 (66.7) n (%)
- Overall ECG result Abnormal, NCS (60 mg (N = 6), 2 h): 2 (33.3) n (%)
- Overall ECG result Normal (60 mg (N = 6), 2 h): 4 (66.7) n (%)
- Overall ECG result Abnormal, NCS (60 mg (N = 6), 3 h): 1 (16.7) n (%)
- Overall ECG result Normal (60 mg (N = 6), 3 h): 5 (83.3) n (%)
- Overall ECG result Abnormal, NCS (60 mg (N = 6), 5 h): 1 (16.7) n (%)
- Overall ECG result Normal (60 mg (N = 6), 5 h): 5 (83.3) n (%)
- Overall ECG result Abnormal, NCS (60 mg (N = 6), 8 h): 2 (33.3) n (%)
- Overall ECG result Normal (60 mg (N = 6), 8 h): 4 (66.7) n (%)
- Overall ECG result Abnormal, NCS (60 mg (N = 6), 12 h): 3 (50.0) n (%)
- Overall ECG result Normal (60 mg (N = 6), 12 h): 3 (50.0) n (%)
- Overall ECG result Abnormal, NCS (60 mg (N = 6), 24 h): 2 (33.3) n (%)
- Overall ECG result Normal (60 mg (N = 6), 24 h): 4 (66.7) n (%)
- Overall ECG result Abnormal, NCS (60 mg (N = 6), 48 h): 2 (33.3) n (%)
- Overall ECG result Normal (60 mg (N = 6), 48 h): 4 (66.7) n (%)
- Overall ECG result Abnormal, NCS (60 mg (N = 6), 72 h): 1 (16.7) n (%)
- Overall ECG result Normal (60 mg (N = 6), 72 h): 5 (83.3) n (%)
- Overall ECG result Abnormal, NCS (60 mg (N = 6), Visit 3): 1 (16.7) n (%)
- Overall ECG result Normal (60 mg (N = 6), Visit 3): 5 (83.3) n (%)
- Overall ECG result Abnormal, NCS (100 mg (N = 6), 0.5 h): 1 n (%)
- Overall ECG result Normal (100 mg (N = 6), 0.5 h): 5 n (%)
- Overall ECG result Abnormal, NCS (100 mg (N = 6), 1 h): 0 n (%)
- Overall ECG result Normal (100 mg (N = 6), 1 h): 6 n (%)
- Overall ECG result Abnormal, NCS (100 mg (N = 6), 2 h): 1 n (%)
- Overall ECG result Normal (100 mg (N = 6), 2 h): 5 n (%)
- Overall ECG result Abnormal, NCS (100 mg (N = 6), 3 h): 3 n (%)
- Overall ECG result Normal (100 mg (N = 6), 3 h): 3 n (%)
- Overall ECG result Abnormal, NCS (100 mg (N = 6), 5 h): 1 n (%)
- Overall ECG result Normal (100 mg (N = 6), 5 h): 5 n (%)
- Overall ECG result Abnormal, NCS (100 mg (N = 6), 8 h): 1 n (%)
- Overall ECG result Normal (100 mg (N = 6), 8 h): 5 n (%)
- Overall ECG result Abnormal, NCS (100 mg (N = 6), 12 h): 0 n (%)
- Overall ECG result Normal (100 mg (N = 6), 12 h): 6 n (%)
- Overall ECG result Abnormal, NCS (100 mg (N = 6), 24 h): 1 n (%)
- Overall ECG result Normal (100 mg (N = 6), 24 h): 5 n (%)
- Overall ECG result Abnormal, NCS (100 mg (N = 6), 48 h): 1 n (%)
- Overall ECG result Normal (100 mg (N = 6), 48 h): 5 n (%)
- Overall ECG result Abnormal, NCS (100 mg (N = 6), 72 h): 0 n (%)
- Overall ECG result Normal (100 mg (N = 6), 72 h): 6 n (%)
- Overall ECG result Abnormal, NCS (100 mg (N = 6), Visit 3): 0 n (%)
- Overall ECG result Normal (100 mg (N = 6), Visit 3): 6 n (%)
- QTcF Average (100 mg, subject 9056, 0.5 h): 425 ms
